# Values quoted from earlier work in patent publication US20100015044A1, “Methods and compositions for diagnosis of iga-and igm-mediated kidney diseases” (priority 2005, published 2010).
# B1: human Fcα/μ receptor: human receptor constitutively expressed on the majority of B-lymphocytes and macrophages (protein, listed as Homo sapiens)
# chain: MDGEATVKPGEQVPLWTHGWPPDDPSPSFAAGSSFALPQKRPHPRWLWEGSLPSRTHLRAMGTLRPSSPLCWREESSFAAPNSLKGSRLVSGEPGGAVTIQCHYAPSSVNRHQRKYWCRLGPPRWICQTIVSTNQYTHHRYRDRVALTDFPQRGLFVVRLSQLSPDDIGCYLCGIGSENNMLFLSMNLTISAGPASTLPTATPAAGELTMRSYGTASPVANRWTPGTTQTLGQGTAWDTVASTPGTSKTTASAEGRRTPGATRPAAPGTGSWAEGSVKAPAPIPESPPSKSRSMSNTTEGVWEGTRSSVTNRARASKDRREMTTTKADRPREDIEGVRIALDAAKKVLGTIGPPALVSETLAWEILPQATPVSKQQSQGSIGETTPAAGMWTLGTPAADVWITSMEAASGEGSAAGDLDAATGDRGPQATLSQTPAVGPWGPPGKESSVKRATCPGLSTLKEIKVSAVLTQNPHSLLCVSAAQEAERVTLIQMTHFLEVNPQADQLPHVERKMLQDDSLPAGASLTAPERNPGP
# What was measured:
# murine IgM = murine IgM (Mus musculus, UniProt P01872)
# IgG = details: transfection studies in leukocytes
# IgM = IgM (Homo sapiens, UniProt P01871)
# Sequence of IgM (P01871 1-433 limits assumed): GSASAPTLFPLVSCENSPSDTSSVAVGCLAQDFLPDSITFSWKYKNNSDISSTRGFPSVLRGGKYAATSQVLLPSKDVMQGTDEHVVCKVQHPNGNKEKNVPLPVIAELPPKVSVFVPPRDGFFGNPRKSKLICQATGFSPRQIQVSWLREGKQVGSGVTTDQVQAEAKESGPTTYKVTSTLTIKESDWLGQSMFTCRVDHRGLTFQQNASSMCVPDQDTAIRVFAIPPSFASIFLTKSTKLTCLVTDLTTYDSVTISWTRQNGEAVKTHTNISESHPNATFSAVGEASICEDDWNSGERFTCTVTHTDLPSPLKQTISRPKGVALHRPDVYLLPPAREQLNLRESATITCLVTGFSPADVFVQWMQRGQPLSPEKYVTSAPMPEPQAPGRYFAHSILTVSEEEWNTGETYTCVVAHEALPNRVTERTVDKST
# Sequence of IgM (P01591 23-159 partner): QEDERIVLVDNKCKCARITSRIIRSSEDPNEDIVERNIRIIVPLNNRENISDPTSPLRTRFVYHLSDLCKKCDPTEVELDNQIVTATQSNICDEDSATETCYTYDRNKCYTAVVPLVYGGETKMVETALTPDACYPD
# Sequence of murine IgM (P01872 whole entry, other chains not shown): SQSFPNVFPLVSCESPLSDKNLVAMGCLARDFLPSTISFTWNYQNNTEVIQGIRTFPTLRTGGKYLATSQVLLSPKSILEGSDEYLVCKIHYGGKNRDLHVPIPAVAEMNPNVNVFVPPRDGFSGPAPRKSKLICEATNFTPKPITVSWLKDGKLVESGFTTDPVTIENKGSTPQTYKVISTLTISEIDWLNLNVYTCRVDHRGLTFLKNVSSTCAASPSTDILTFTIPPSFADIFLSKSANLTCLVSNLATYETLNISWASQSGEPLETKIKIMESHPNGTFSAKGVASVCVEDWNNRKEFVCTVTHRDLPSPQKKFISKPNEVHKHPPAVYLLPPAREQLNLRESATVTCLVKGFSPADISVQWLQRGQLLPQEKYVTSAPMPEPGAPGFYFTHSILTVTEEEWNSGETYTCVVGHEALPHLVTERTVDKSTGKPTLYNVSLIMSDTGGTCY
# Sequence of murine IgM (P01592 23-159 partner limits assumed, other chains not shown): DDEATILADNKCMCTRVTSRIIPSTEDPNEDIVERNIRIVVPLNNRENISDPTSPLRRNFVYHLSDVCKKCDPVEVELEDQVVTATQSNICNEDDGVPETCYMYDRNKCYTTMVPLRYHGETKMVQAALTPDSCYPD
molecule,measurement,setting,value
YDWIPSSAW (IgM binding peptide) [YDWIPS SAW],binding to murine IgM,murine IgM,high affinity
same,inhibition of human rheumatoid factor induced agglutination of IgG-coated latex beads,human rheumatoid factor,inhibits
same,binding to other immunoglobulins,other immunoglobulins,no binding abilities
"Sap: 50-residue synthetic peptide including the 29-residue IgA-binding region of Sir22, with C-terminal cysteine (YYALSDAKEEEPRYKALRGENQDLREKERKYQDKIKKLEEKEKNLEKKSC; Sap)",binding to human IgA,human IgA,specifically binds
FcαR1: human membrane glycoprotein Fc receptor for IgA,binding to IgG,IgG,does not bind IgG
B1,binding to IgA,IgA,intermediate to high affinity
same,binding to IgM,IgM,intermediate to high affinity
